According to US7932262B2 (Novartis AG, priority 2006, dated 2011):

How the values were obtained:
PC-3 cells = experiment: Cell Proliferation Assay (Cell Titer Glo), PC-3 cell line; format: cell-based; settings: Homo sapiens, PC-3, Cell Proliferation Assay, PC3; read-out: CPEC50 PC3
Outline: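 Cell Titer Glo luminescence, read after fresh medium replaced the dosing medium, gave viability of PC-3 cells plated at 1000 cells/well. Compounds, 1:3 serially diluted in DMSO at 500× and then in medium, were added after 3-5 h adhesion and incubated 3 days at 37° C.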

PDK1 kinase = biological target: T1, PDK1 kinase (Homo sapiens, UniProt O15530); experiment: PDK1 Kinase Alpha Screen Assay; format: biochemical; settings: PDK1 Kinase Alpha Screen Assay; read-out: PDK1 IC50
T1 sequence (O15530 1-556): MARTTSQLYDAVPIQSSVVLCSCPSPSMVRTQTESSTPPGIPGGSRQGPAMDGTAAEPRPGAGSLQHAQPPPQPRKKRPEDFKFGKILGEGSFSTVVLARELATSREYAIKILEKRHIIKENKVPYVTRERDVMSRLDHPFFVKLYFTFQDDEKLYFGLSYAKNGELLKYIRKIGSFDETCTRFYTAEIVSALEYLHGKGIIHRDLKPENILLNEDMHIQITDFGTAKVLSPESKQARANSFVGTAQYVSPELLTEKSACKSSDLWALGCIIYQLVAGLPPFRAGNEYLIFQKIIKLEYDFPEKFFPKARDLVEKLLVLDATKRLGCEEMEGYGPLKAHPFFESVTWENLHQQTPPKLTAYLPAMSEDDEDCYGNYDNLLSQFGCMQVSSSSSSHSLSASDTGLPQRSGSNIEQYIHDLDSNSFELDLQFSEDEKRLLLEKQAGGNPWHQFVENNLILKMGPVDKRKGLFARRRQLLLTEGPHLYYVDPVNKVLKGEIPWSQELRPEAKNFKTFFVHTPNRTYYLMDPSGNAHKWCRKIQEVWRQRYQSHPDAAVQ
Outline: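 AlphaScreen readout: phospho-peptide captured by phospho-(Ser/Thr) PKA substrate antibody (0.3 mg/ml) on protein A acceptor beads, biotin peptide on streptavidin donor beads (25 μg/ml each), overnight at room temperature. Kinase step used 50 nM PDK1-4 peptide, 10 uM ATP, 3-18 hours.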

EC50 (PC-3 cells) [µM]	IC50 (PDK1 kinase) [µM]	Compound
< 5	< 5	Fc1ccc(Nc2ncc3cccc(OC4CCNCC4)c3n2)cc1Br [Compound 484, N-(3-bromo-4-fluorophenyl)-8-(piperidin-4-yloxy)quinazolin-2-amine]
< 5	< 5	O=C(NC1CC1)c1ccc(Nc2ncc3cccc(OC4CCNCC4)c3n2)cc1Cl [Compound 485, 2-chloro-N-cyclopropyl-4-(8-(piperidin-4-yloxy)quinazolin-2-ylamino)benzamide]
< 5	< 5	COCCNC(=O)c1ccc(Nc2ncc3cccc(OC4CCNCC4)c3n2)cc1Cl [Compound 486, 2-chloro-N-(2-methoxyethyl)-4-(8-(piperidin-4-yloxy)quinazolin-2-ylamino)benzamide]
< 5	< 5	O=C(O)c1ccc(Nc2ncc3cccc(OC4CCNCC4)c3n2)cc1 [Compound 488, 4-(8-(piperidin-4-yloxy)quinazolin-2-ylamino)benzoic acid]
< 5	< 5	N#Cc1ccc(Nc2ncc3cccc(OC4CCNCC4)c3n2)cc1 [Compound 489, 4-(8-(piperidin-4-yloxy)quinazolin-2-ylamino)benzonitrile]
< 5	< 5	O=C(NC1CC1)c1ccc(Nc2ncc3cccc(OC4CCNCC4)c3n2)cc1 [Compound 490, N-cyclopropyl-4-(8-(piperidin-4-yloxy)quinazolin-2-ylamino)benzamide]
< 5	< 5	CC(C)NC(=O)c1ccc(Nc2ncc3cccc(OC4CCNCC4)c3n2)cc1 [Compound 491, N-isopropyl-4-(8-(piperidin-4-yloxy)quinazolin-2-ylamino)benzamide]
< 5	< 5	COCCNC(=O)c1ccc(Nc2ncc3cccc(OC4CCNCC4)c3n2)cc1 [Compound 492]
< 5	< 5	CS(=O)(=O)CCNC(=O)c1ccc(Nc2ncc3cccc(OC4CCNCC4)c3n2)cc1F [Compound 493, 2-fluoro-N-(2-(methylsulfonyl)ethyl)-4-(8-(piperidin-4-yloxy)quinazolin-2-ylamino)benzamide]

Continued, molecule first:

Compound	EC50 (PC-3 cells) [µM]	IC50 (PDK1 kinase) [µM]
CN1CCN(c2ccc(-c3cccc4cnc(Nc5ccc(N6CCOCC6)c(Cl)c5)nc34)cn2)CC1 [Compound 466, N-(3-chloro-4-morpholinophenyl)-8-(6-(4-methylpiperazin-1-yl)pyridin-3-yl)quinazolin-2-amine]	< 5	< 5
CN1CCN(c2ccc(-c3cccc4cnc(Nc5cc(C(=O)O)cc(C(F)(F)F)c5)nc34)cn2)CC1 [Compound 467, 3-(8-(6-(4-methylpiperazin-1-yl)pyridin-3-yl)quinazolin-2-ylamino)-5-(trifluoromethyl)benzoic acid]	< 5	< 5
CN1CCN(c2ccc(-c3cccc4cnc(Nc5cc(C(=O)N6CCCC6)cc(C(F)(F)F)c5)nc34)cn2)CC1 [Compound 468, (3-(8-(6-(4-methylpiperazin-1-yl)pyridin-3-yl)quinazolin-2-ylamino)-5-(trifluoromethyl)phenyl)(pyrrolidin-1-yl)methanone]	< 5	5 to 10
C#Cc1ccc(OC2CCNCC2)c2nc(Nc3ccc(S(N)(=O)=O)cc3)ncc12 [Compound 469, 4-(5-ethynyl-8-(piperidin-4-yloxy)quinazolin-2-ylamino)benzenesulfonamide]	5 to 10	< 5
c1cc(OC2CCNCC2)c2nc(Nc3ccc(N4CCOCC4)nc3)ncc2c1 [Compound 470, N-(6-morpholinopyridin-3-yl)-8-(piperidin-4-yloxy)quinazolin-2-amine]	< 5	< 5
Clc1cc(Nc2ncc3cccc(OC4CCNCC4)c3n2)ccc1N1CCOCC1 [Compound 471, N-(3-chloro-4-morpholinophenyl)-8-(piperidin-4-yloxy)quinazolin-2-amine]	< 5	< 5
O=C(O)c1cc(Nc2ncc3cccc(OC4CCNCC4)c3n2)ccc1F [Compound 472, 2-fluoro-5-(8-(piperidin-4-yloxy)quinazolin-2-ylamino)benzoic acid]	5 to 10	< 5
CN(C)C(=O)c1cc(Nc2ncc3cccc(OC4CCNCC4)c3n2)ccc1F [Compound 473, 2-fluoro-N,N-dimethyl-5-(8-(piperidin-4-yloxy)quinazolin-2-ylamino)benzamide]	< 5	< 5
CC(C)NC(=O)c1cc(Nc2ncc3cccc(OC4CCNCC4)c3n2)ccc1F [Compound 474, 2-fluoro-N-isopropyl-5-(8-(piperidin-4-yloxy)quinazolin-2-ylamino)benzamide]	< 5	< 5
O=C(c1cc(Nc2ncc3cccc(OC4CCNCC4)c3n2)ccc1F)N1CCOCC1 [Compound 475, (2-fluoro-5-(8-(piperidin-4-yloxy)quinazolin-2-ylamino)phenyl)(morpholino)methanone]	5 to 10	< 5
O=C(NC1CCOCC1)c1cc(Nc2ncc3cccc(OC4CCNCC4)c3n2)ccc1F [Compound 476, 2-fluoro-5-(8-(piperidin-4-yloxy)quinazolin-2-ylamino)-N-(tetrahydro-2H-pyran-4-yl)benzamide]	< 5	< 5
O=C(c1ccc(Nc2ncc3cccc(OC4CCNCC4)c3n2)cc1F)N1CCCC1 [Compound 477, (2-fluoro-4-(8-(piperidin-4-yloxy)quinazolin-2-ylamino)phenyl)(pyrrolidin-1-yl)methanone]	< 5	< 5
CN1CCN(C(=O)c2ccc(Nc3ncc4cccc(OC5CCNCC5)c4n3)cc2F)CC1 [Compound 478, (2-fluoro-4-(8-(piperidin-4-yloxy)quinazolin-2-ylamino)phenyl)(4-methylpiperazin-1-yl)methanone]	< 5	< 5
c1ccc(Nc2ncc3cccc(OC4CCNCC4)c3n2)cc1 [Compound 479, N-phenyl-8-(piperidin-4-yloxy)quinazolin-2-amine]	< 5	< 5
Fc1cccc(Nc2ncc3cccc(OC4CCNCC4)c3n2)c1 [Compound 480, N-(3-fluorophenyl)-8-(piperidin-4-yloxy)quinazolin-2-amine]	< 5	< 5
O=C(O)c1ccc(Nc2ncc3cccc(OC4CCNCC4)c3n2)cc1Cl [Compound 481, 2-chloro-4-(8-(piperidin-4-yloxy)quinazolin-2-ylamino)benzoic acid]	5 to 10	< 5
CC(C)NC(=O)c1ccc(Nc2ncc3cccc(OC4CCNCC4)c3n2)cc1Cl [Compound 482, 2-chloro-N-isopropyl-4-(8-(piperidin-4-yloxy)quinazolin-2-ylamino)benzamide]	< 5	< 5
O=C(c1ccc(Nc2ncc3cccc(OC4CCNCC4)c3n2)cc1Cl)N1CCOCC1 [Compound 483, (2-chloro-4-(8-(piperidin-4-yloxy)quinazolin-2-ylamino)phenyl)(morpholino)methanone]	< 5	< 5
Fc1ccc(Nc2ncc3cccc(OC4CCNCC4)c3n2)cc1C1=CCNCC1 [Compound 487, N-(4-fluoro-3-(1,2,3,6-tetrahydropyridin-4-yl)phenyl)-8-(piperidin-4-yloxy)quinazolin-2-amine]	< 5	< 5
